Molecular target: T1, human Keap1 Kelch domain (Homo sapiens, UniProt Q14145)
T1 construct: human Keap1 Kelch domain (residue 321-609, UniProt Q14145); made in house; host or cells: Escherichia coli BL21 (DE3) pLysS, pRSET A vector
Experiment: Heterologous competition fluorescence polarization (FP) binding assay, Cy5-Nrf2 peptide probe
Conditions: mean ± SEM of at least 3 individual measurements; Keap1 Kelch 14 nM, Cy5-Nrf2 probe 3 nM, 4% DMSO
Protocol: The assay was performed in a 1 × HBSTET buffer (10 mM HEPES, 150 mM NaCl, 0.005% Tween20, 3 mM ethylenediaminetetraacetic acid (EDTA), 1 mM TCEP, pH = 7.4) using black flat-bottom 384-well plates (Corning Life Sciences, NY), a volume of 30 µL/well, and a final DMSO concentration of 4% or 8%. The assay plate was spun down to ascertain proper mixing and removal of potential air bubbles and incubated for 10-15 min at room temperature before measuring the FP levels on a Safire2 plate reader (Tecan, Männedorf, Switzerland). The g-factor was adjusted at each experiment so that a series of three blank wells containing probe but no Keap1 Kelch defined the baseline FP value. The Cy5-Nrf2 probe was measured at excitation/emission values of 635:670 nm. The FP values were fitted to the one-site specific binding equation: Y = Bmax × X/(Kd + X), with Bmax being the maximal FP value, X the Keap1 Kelch concentration, and Y the variable FP values. The Kd values were derived from the resulting binding saturation curve as being equal to the Keap1 Kelch concentration, where the curve is half-saturated.
The affinities between nonfluorescent small molecule Keap1 inhibitors and Keap1 Kelch were determined as Ki values in a heterologous competition FP binding assay. […] FP values were fitted to the equation Y = Bottom + (Top- Bottom)/[1 + (10^HillSlope×(log IC50-X))], where X is the logarithmic value of compound concentration. Hereby, the IC50 value was obtained, which together with the Kd value and probe and Keap1 Kelch concentrations was used to calculate the theoretical competitive inhibition constant, the Ki value.^43 Ki values are shown as mean ± SEM (standard error of mean) if based on two or more individual measurements.

T1 sequence (Q14145 321-609): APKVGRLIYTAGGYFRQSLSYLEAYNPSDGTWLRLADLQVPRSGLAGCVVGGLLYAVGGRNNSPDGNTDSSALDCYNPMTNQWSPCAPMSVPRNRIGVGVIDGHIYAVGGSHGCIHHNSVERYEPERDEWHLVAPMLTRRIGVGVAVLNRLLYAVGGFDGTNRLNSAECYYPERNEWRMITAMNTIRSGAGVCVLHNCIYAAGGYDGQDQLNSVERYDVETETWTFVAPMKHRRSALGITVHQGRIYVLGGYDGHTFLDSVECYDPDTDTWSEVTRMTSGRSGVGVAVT

Ki [µM]	Structure (SMILES)
0.59 ± 0.1	CCOc1ccc(S(=O)(=O)N2CCc3ccc(C(NC(=O)c4cccc5c4-c4ccccc4C5O)C(=O)O)cc3C2)cc1C#N (stereo not shown) [Compound K32, 2-(2-((3-cyano-4-ethoxyphenyl)sulfonyl)-1,2,3,4-tetrahydroisoquinolin-7-yl)-2-(9-hydroxy-9H-fluorene-4-carboxamido)acetic acid]
0.17 ± 0.04	CCOc1ccc(S(=O)(=O)N2CCc3ccc(C(NC(=O)c4cccc5c4-c4ccccc4C54SCCS4)C(=O)O)cc3C2)cc1C#N (stereo not shown) [Compound K38, 2-(2-((3-cyano-4-ethoxyphenyl)sulfonyl)-1,2,3,4-tetrahydroisoquinolin-7-yl)-2-(spiro[fluorene-9,2'-[1,3]dithiolane]-4-carboxamido)acetic acid]
0.93 ± 0.21	O=C(O)CC(NC(=O)c1cccc2c1-c1ccccc1C2=O)c1ccc2c(c1)CN(S(=O)(=O)c1ccccc1)CC2 (stereo not shown) [Compound K46, 3-(9-oxo-9H-fluorene-4-carboxamido)-3-(2-(phenylsulfonyl)-1,2,3,4-tetrahydroisoquinolin-7-yl)propanoic acid]
3.6 ± 0.4	CCOc1ccc(S(=O)(=O)N2Cc3ccc(C(NC(=O)c4cccc5c4-c4ccccc4C5=O)C(=O)O)cc3C2)cc1C#N (stereo not shown) [Compound K50, 2-(2-((3-cyano-4-ethoxyphenyl)sulfonyl)isoindolin-5-yl)-2-(9-oxo-9H-fluorene-4-carboxamido)acetic acid]
